The values that follow come from patent publication US10336792B2, “Antimicrobial peptide dendrimers” (priority 2014, dated 2019).

The test system of one data set is Acinetobacter baumannii. Type of data set: cell-based. An outline of the steps: (§1)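 Broth microdilution in Müller-Hinton medium, two-fold serial dilutions from a starting 32–256 μg/mL, compounds dissolved in PBS; inoculum about 5×10^5 CFU, incubated 37° C ~18 h. MIC taken as lowest concentration with no visible growth by eye; polymyxin as reference.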
Data set [1] relates to Staphylococcus aureus (COL, MRSA reference strain). Type of data set: cell-based. The conditions noted are these: COL, reference strain. Put shortly:
as §1

A further data set deals with P. aeruginosa PA01 (WT). Type of data set: cell-based, Pseudomonas aeruginosa. To be noted: WT. The method, then: (§2) Antimicrobial activity was assayed against P. aeruginosa PA01 (WT), P. aeruginosa PT1482 (A-), PT1485 (A-B-), PT1149 (A-B-C-algC), PT331 (Z61) (LPS mutants), P. aeruginosa PEJ2.6, PEJ9.1, ZEM1.A, ZEM9.A (clinical isolates from Université de Genève/Centre Médical Universitaire), Burkholderia cenocepacia (B. ceno), Staphylococcus aureus (S. aureus, MRSA strain) and Acinetobacter baumannii (A. baum) (clinical isolates from Université de Genève/Centre Médical Universitaire). To determine the minimal inhibitory concentration (MIC), microdilution broth method was used. A colony of bacteria was grown in MH-medium overnight at 37° C. The samples were prepared as stock solutions of 8 mg mL^−1 in H2O, diluted to the beginning concentration of 32, 64, 128 or 256 μg/mL in 300 μL MH-medium, added to the first well of 96-well microtiterplate (TPP, untreated) and diluted serially by ½. The concentration of the bacteria was quantified by measuring absorbance at 600 nm and diluted to OD600=0.022 in MH-medium. The sample solutions (150 μL) were mixed with 4 μL diluted bacterial suspension with a final inoculation of about of 5×10^5 CFU. The plates were incubated at 37° C. until satisfactory growth (˜18 h). For each test, two columns of the plate were kept for sterility control (SC, broth only) and growth control (GC, broth with bacterial inoculums, no antibiotics). The minimal inhibitory concentration (MIC) was defined as the lowest concentration of the antimicrobial substance (peptide dendrimer) that inhibited visible growth of the tested bacteria with the unaided eye. For microbiological study Polymyxin was used as references.

Data set [2] has as its system P. aeruginosa PT1482 (A-), PT1485 (A-B-), PT1149 (A-B-C-algC), PT331 (Z61) (LPS mutants). Format: cell-based, Pseudomonas aeruginosa. To be noted: MH medium, 12-18 h. The method, then:
as §2

The subject of the next data set is male wistar rats. Briefly: In-vivo toxicity study, single i.v. injection. More on the design: species or system rat. From the text: 4-6 weeks old male wistar rats (weight range 200-500 g) were used in toxicity experiments. Rats were obtained from Zentrale Tierställe Bern (Department of Clinical Research from University of Bern) and housed 4 per cage. Each experimental group includes two rats. All procedures, care and handling of the animals were reviewed and approved by the Veterinärdienst of Kanton Bern, Schweiz and execute in collaboration with the group of Prof. Hugues Abriel from Department of Clinical Research from University of Bern.
Rats were anesthetized with 4% isoflurane and 1 L/min oxygen in an induction chamber. When the rats were sleeping they were transferred on a clinical drape and anesthetized with 1-2% isoflurane and 0.8 l/min oxygen via a mask. The tail was warmed up with warm water and disinfected with 70% ethanol. The intravenous (i.v.) injections into the tail vein included a single dose of the AMPD of 2 mg/kg rat in 500 μL PBS. Before injection each rat was weighted individually and the exact dosage was determined. All rats, including control groups with no injection and i.v. injection of 500 μL PBS, were monitored for their survival and behavior for two days.
The compounds MSt-112, a 3rd generation AMPD with KL motive, MSt-181 its D-enantiomer analogue, MSt-242, a the 3rd generation with RL motive, and MSt-114 with Tyr instead of Lys in the 3rd generation were used for in vivo experiments with male wistar rats to assess their toxicity. These compounds were selected due to their high potencies and high MHCs values, which are at least 10 times higher than their activities. Each compound (concentration of 2 mg/kg) was applied to two rats by intravenous injection into the tail vein to observe if the AMPDs are well tolerated or may cause adverse effects. The concentration used was approx. 5-10 times higher than the MICs. […] The behaviour of the rats was normal. […] Therefore it seems that rats tolerate AMPDs very well, without visible site effects or even casualties.

The subject of data set [3] is Pseudomonas aeruginosa (strain PA01). Briefly: microbe, parasite or virus in culture. Type of data set: cell-based. An outline of the steps: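 P. aeruginosa PAO1 grown overnight in LB, diluted to OD600 0.001 and mixed with ⅔-step peptide dilutions, then incubated at 37 °C for 18–24 h. After MTT staining, the lowest concentration with no visible growth was read by eye as the MIC.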

In data set [4] the test system is P. aeruginosa PEJ2.6, PEJ9.1, ZEM1.A, ZEM9.A (clinical isolates). Type of data set: cell-based, Pseudomonas aeruginosa. To be noted: PEJ2.6, PEJ9.1, ZEM1.A, ZEM9.A (clinical isolates). The method, then: as §2
Ten of the most promising compounds (FIG. 5) were tested for their efficiency against four clinical isolates of P. aeruginosa (ZEM9.A, ZEM1.A, PEJ2.6, PEJ9.1), one S. aureus (COL, MRSA reference strain) and one A. baumannii strain. For the experiments in Genève the peptide dendrimers and reference compounds (polymyxin) were dissolved in PBS and the assay was carried out in Müller-Hinton (MH) broth with a two-fold dilution.

In data set [5] the test system is Escherichia coli (strain DH5α). Format: cell-based. To be noted: DH5α. An outline of the steps:
(§3)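 Broth microdilution MIC in LB; overnight cultures diluted to OD600 0.001 and mixed 1:1 with ⅔-serially diluted samples (stock 1 mg mL^−1 in H2O), 37° C for 18-24 h. MTT (0.1%) added; MIC read by eye as lowest concentration inhibiting visible growth (yellow).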

The subject of data set [6] is Bacillus subtilis (strain BR151). Type of data set: cell-based. To be noted: strain BR151. An outline of the steps:
as §3

Data set [7] relates to Pseudomonas aeruginosa (strain PA01). Type of data set: cell-based. The conditions noted are these: 25 μg/mL; 0, 1, 3, 6, 8, 24 h. The method, then: Cell viability was assayed against Pseudomonas aeruginosa (strain PA01). A colony of bacteria was grown in LB-medium overnight at 37° C. The concentration was quantified by measuring absorbance at 600 nm and diluted to OD600=0.1 (1×10^8 CFU/mL). The samples were prepared as stock solutions of 1 mg mL^−1 in H2O and diluted in LB to a concentration of 50 μg/mL in a 96-well microtiterplate (TPP, untreated). The sample solutions (50 μL) were mixed with the diluted bacterial suspension with an OD600 nm of 0.001 (50 μL). […] The plates were incubated at 37° C. for 1, 3, 6, 8 and 24 h. Each time point was assayed on a separate plate. For each test, two columns of the plate were kept for sterility control (SC, broth only) and growth control (GC, broth with bacterial inoculums, no antibiotics). After incubation 15 μL of WST-8 working solution (3.31 mg/mL WST-8 (Ochem Incorporation), 0.074 mg/mL PES (phenazine ethosulfate)) was added to each well and cells were incubated at 37° C. until GC had desired value. After the reaction took place, the final absorbance was read at 450 nm. For calculations, the value of the GC was set to 100% cell viability and the value of the negative control (no bacteria, SC) was set to 0% cell viability. […]
In order to determine the killing kinetics of AMPDs the amount of living bacteria was measured as a function of time after incubation with the AMPDs. […]

The nature of data set [8]: 5(6)-Carboxyfluorescein leakage from lipid vesicles. The conditions noted are these: 10 mM TRIS, 107 mM NaCl, pH 7.4; peptide added at 50 s. How it is done: (§4) Preparation A thin lipid film was prepared by evaporating a solution of 25 mg Egg PC or Egg PG in 1 mL MeOH/CHCl3 1/1 on a rotary evaporator (rt) and then in vacuo overnight. The resulting film was hydrated with 1 mL buffer (50 mM CF, 10 mM TIRS, 10 mM NaCl, pH 7.4) for 30 min, subjected to freeze-thaw cycles (7×) and extrusion (15×) through a polycarbonate membrane (pore size 100 nm). Extravesicular components were removed by gel filtration (Sephadex G-50) with 10 mM TRIS, 107 mM NaCl, pH 7.4. Final conditions: ˜2.5 mM Egg PC or Egg PG; inside: 50 mM CF, 10 mM TIRS, 10 mM NaCl, pH 7.4; outside: 10 mM TRIS, 107 mM NaCl, pH 7.4.
(§5) Experiment Egg PC or Egg PG stock solutions (37.5 μL) were diluted with a buffer (10 mM TRIS, 107 mM NaCl, pH 7.4) and placed in a thermostated fluorescence cuvette (25° C.) and gently stirred (total volume in the cuvette ˜3000 μL; final lipid concentration ˜31.25 μM). CF efflux was monitored at λem 517 nm (λex 492 nm) as a function of time after addition of 20 μL of peptide dendrimer in buffer (10 mM TRIS, 107 mM NaCl, pH 7.4) with final concentrations of 1, 5, 7.5, 10, 15, 20, 25, 30 μg/mL at t=50 s and 1.2% trition X-100 (30 μL, 0.012% final concentration) at t=300 s. Fluorescence intensities were normalized to fractional emission intensity I(t) using I(t)=(It−I0)/(I∞−I0) where I0 It at peptide dendrimer addition, I∞=It at saturation of lysis.
Bacterial membranes contain relatively large amounts of exposed anionic lipids, while the outer leaflet of the membranes of plants and animals is composed mainly of lipids with no net charge. The charge composition of such membranes can be mimicked with phospholipid vesicles. Large unilamellar vesicles (LUVs) composed of the neutral phospholipid with PC (phosphatidyl choline) or with PG (phosphatidyl glycerol) with negative charges were prepared encapsulating 5(6)-carboxyfluorescein (CF). […] The higher the concentration of MSt-112 the higher is the CF leakage (FIG. 6A). […] Overall the active AMPDs interact with the negatively charged membrane and release the CF.

Assay in data set [9]: as above
To be noted: 10 mM TRIS, 107 mM NaCl, pH 7.4; peptide added at 50 s. The method, then: as §4, §5
This is another data set of the same source.

Values after ≈ are worked out from the molar mass of the structure shown. Positions of bridges follow the written chain, without caps; N, C: chain ends. Residues, ends and D or L forms follow the SMILES beside them. Groups on a side chain read outwards from the residue. Chains are numbered I, II in the order given.

For the molecule `CC(C)C[C@H](NC(=O)[C@H](CCCCN)NC(=O)[C@H](CCCCNC(=O)[C@H](CC(C)C)NC(=O)[C@H](CCCCN)NC(=O)[C@H](CCCCNC(=O)[C@H](CC(C)C)NC(=O)[C@H](CCCCN)NC(=O)[C@H](CCCCNC(=O)[C@H](CC(C)C)NC(=O)[C@@H](N)CCCCN)NC(=O)[C@H](CC(C)C)NC(=O)[C@@H](N)CCCCN)NC(=O)[C@H](CC(C)C)NC(=O)[C@H](CCCCN)NC(=O)[C@H](CCCCNC(=O)[C@H](CC(C)C)NC(=O)[C@@H](N)CCCCN)NC(=O)[C@H](CC(C)C)NC(=O)[C@@H](N)CCCCN)NC(=O)[C@H](CC(C)C)NC(=O)[C@H](CCCCN)NC(=O)[C@H](CCCCNC(=O)[C@H](CC(C)C)NC(=O)[C@H](CCCCN)NC(=O)[C@H](CCCCNC(=O)[C@H](CC(C)C)NC(=O)[C@@H](N)CCCCN)NC(=O)[C@H](CC(C)C)NC(=O)[C@@H](N)CCCCN)NC(=O)[C@H](CC(C)C)NC(=O)[C@H](CCCCN)NC(=O)[C@H](CCCCNC(=O)[C@H](CC(C)C)NC(=O)[C@@H](N)CCCCN)NC(=O)[C@H](CC(C)C)NC(=O)[C@@H](N)CCCCN)C(N)=O` [MSt-112, (KL)8(KKL)4(KKL)2(KKL)] (I: H-KLK([Leu-Lys])KLKKLKKL-NH2 / II: H-KLK([Leu-Lys])KLKKL / III: H-KLK([Leu-Lys])KL / IV: H-KLK([Leu-Lys])KL; amide I:6-IV:C, I:9-II:C, II:6-III:C), in the data set with Acinetobacter baumannii, the “MIC A. baumannii ATCC19606” value was in the range of 8 to 16 µg/mL. Moreover, the “MIC S. aureus COL” value in data set [1] is above 64 µg/mL. In addition, in the data set with P. aeruginosa PA01 (WT), the “MIC (MH)” value was determined as 4 µg/mL (≈ 0.882 µM) and the “MIC PAO1” value worked out at 4 µg/mL (≈ 0.882 µM). Besides, in data set [2], the “MIC PT1482 (A-)” value stood at 4 µg/mL (≈ 0.882 µM) and the “MIC PT1485 (AB-)” value is 4 µg/mL (≈ 0.882 µM). Moreover, the “visible effects and behaviour after injection” value with male wistar rats (2 mg/kg single i.v. dose into tail vein, two rats) is reported as “No visible effect”. Further, the survival rate in the data set on male wistar rats (2 mg/kg single i.v. dose, monitored 2 days) turned out to be 100%. Moreover, the “MIC P. aeruginosa PAO1” value in [3] (strain) came out at 2 µg/mL (≈ 0.441 µM). Also, in data set [4], the “MIC P. aeruginosa MDR clinical isolate PEJ2.6” value was found to be 16 µg/mL (≈ 3.53 µM), the “MIC P. aeruginosa MDR clinical isolate PEJ9.1” value stood at 64 µg/mL (≈ 14.1 µM), the “MIC P. aeruginosa MDR clinical isolate ZEM1A” value was 4 µg/mL (≈ 0.882 µM) and the “MIC P. aeruginosa MDR clinical isolate ZEM9A” value was in the range of 32 to 64 µg/mL. The “MIC E. coli DH5α” value in data set [5] is 4 µg/mL (≈ 0.882 µM). Further, the “MIC B. subtilis BR151” value in data set [6] turned out to be 3 µg/mL (≈ 0.662 µM).
In the case of `NC[C@H]1O[C@H](O[C@H]2[C@H](O)[C@@H](O[C@H]3O[C@H](CO)[C@@H](O)[C@H](N)[C@H]3O)[C@H](N)C[C@@H]2N)[C@H](N)C[C@@H]1O` [Tobramycin], the “killing kinetics (bacterial survival over 24 hours)” value in data set [7] is “kill P. aeruginosa immediately”. In data set [8], the “CF leakage from phosphatidylglycerol LUVs” value was “do not show release of CF”. Also, the MIC in data set [3] (Pseudomonas aeruginosa, PAO1, LB medium, serial 2/3 dilution, 37 °C, 18-24 h, read-out: MIC P. aeruginosa PAO1) was 0.5 µg/mL (≈ 1.07 µM). Also, the “CF leakage from phosphatidylcholine LUVs” value in [9] is “no CF release”.
